From US7253178B2, “Carboxylic acids” (Eisai Co., Ltd., priority 2001, dated 2007)

Key:
Experiment in all cases: Transcriptional activity, GAL4-PPAR LBD chimera / PLAP reporter in CV-1 cells
Type in all cases: cell-based
PPAR γ = target: T1, PPAR γ (Homo sapiens, UniProt P37231); conditions: GAL4-PPARγ LBD (174-475), PLAP activity 24 hours after addition, read-out: Transcriptional activities EC50 PPAR γ
T1 construct: 174-475 (PPARγ); expressed in transfected cells; host or cells: CV-1 (ATCC CCL-70)
T1 sequence (P37231 174-475 isoform P37231-2): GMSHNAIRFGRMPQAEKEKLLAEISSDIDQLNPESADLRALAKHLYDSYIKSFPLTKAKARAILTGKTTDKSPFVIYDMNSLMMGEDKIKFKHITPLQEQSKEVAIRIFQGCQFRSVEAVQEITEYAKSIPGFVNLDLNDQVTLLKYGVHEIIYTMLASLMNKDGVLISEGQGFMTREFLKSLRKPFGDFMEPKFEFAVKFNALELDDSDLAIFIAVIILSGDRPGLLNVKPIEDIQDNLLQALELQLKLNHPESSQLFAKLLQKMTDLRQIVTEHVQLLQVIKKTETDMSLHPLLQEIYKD
Source text: (§1) A GAL4-PPAR LBD chimera expression vector was constructed by ligating human PPAR 167-468 (PPARα), 138-440 (NUC-1) and 174-475 (PPARγ) amino acid regions (LBD: Ligand Binding Domain) to a yeast transcriptional factor GAL4 1-147 amino acid region. As the reporter gene, PLAP (Placental Alkaline Phosphatase) was used, and this was ligated downstream of a TK promoter containing a 5-copy GAL4 DNA binding element to construct a vector. As host cells, CV-1 (ATCC CCL-70) was used. That is, CV-1 cells were spread at a density of 5×10^5 cells on a 35-mm dish and cultured in 10% FCS/DMEM for 24 hours, and using FuGENE 6 transfection reagent, the cells were co-transfected with the GAL4-PPAR LBD expression vector and GAL4 DBD-TK-PLAP expression vector. 24 hours after this transfection, the cells were spread again on a 96-well plate at a density of 1×10^4/well and further cultured for 24 hours. After 24 hours, the medium was exchanged with DMEM containing 10% FCS, which was previously treated at 65° C. for inactivating intrinsic alkaline phosphatase, and a test compound was added at an arbitrary concentration. The transcriptional activity was determined in terms of PLAP activity secreted 24 hours after addition of the compound, to calculate EC50. The PLAP activity was determined after adding 50 μl assay buffer and 50 μl chemoluminescence substrate to 10 μl culture supernatant and incubating the mixture at room temperature for 1 hour. The transcriptional activities for PPAR, PPARβ(δ) and PPARγ are shown respectively in Table 1.

PPAR α = target: T2, PPAR α (Homo sapiens, UniProt Q07869); conditions: GAL4-PPARα LBD (167-468), PLAP activity 24 hours after addition, read-out: Transcriptional activities EC50 PPAR α
T2 construct: human PPAR 167-468 (PPARα); expressed in transfected cells; host or cells: CV-1 (ATCC CCL-70)
T2 sequence (Q07869 167-468): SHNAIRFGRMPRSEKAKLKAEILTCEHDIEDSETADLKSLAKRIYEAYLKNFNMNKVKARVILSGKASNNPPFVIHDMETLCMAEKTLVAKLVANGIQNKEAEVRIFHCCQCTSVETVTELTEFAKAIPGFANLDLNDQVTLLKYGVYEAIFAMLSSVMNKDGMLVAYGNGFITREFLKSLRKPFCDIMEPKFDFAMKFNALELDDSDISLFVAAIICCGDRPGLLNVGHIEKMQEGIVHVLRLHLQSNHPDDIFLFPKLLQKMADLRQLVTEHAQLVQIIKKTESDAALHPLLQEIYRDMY
Source text: as §1

PPAR β = target: T3, PPAR β (Homo sapiens, UniProt Q03181); conditions: GAL4-NUC-1 LBD (138-440), PLAP activity 24 hours after addition, read-out: Transcriptional activities EC50 PPAR β
T3 construct: 138-440 (NUC-1); expressed in transfected cells; host or cells: CV-1 (ATCC CCL-70)
T3 sequence (Q03181 138-440): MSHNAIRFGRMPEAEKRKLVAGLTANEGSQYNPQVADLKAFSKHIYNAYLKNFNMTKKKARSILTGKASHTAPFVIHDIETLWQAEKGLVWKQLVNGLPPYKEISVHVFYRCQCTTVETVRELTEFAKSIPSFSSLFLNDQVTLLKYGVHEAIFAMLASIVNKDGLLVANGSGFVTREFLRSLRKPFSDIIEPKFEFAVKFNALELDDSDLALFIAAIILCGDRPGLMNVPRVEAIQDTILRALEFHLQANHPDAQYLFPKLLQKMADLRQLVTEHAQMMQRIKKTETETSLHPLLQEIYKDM
Source text: as §1

| EC50 (PPAR γ) [µM] | EC50 (PPAR α) [µM] | EC50 (PPAR β) [µM] | Structure (SMILES) |
| --- | --- | --- | --- |
| 0.0685 | 0.0056 | 1.41 | CC(C)OC(Cc1ccnc(OCCOc2ccc(Cl)cc2Cl)c1)C(=O)O (stereo not drawn) [Example 1, 3-{2-[2-(2,4-Dichlorophenoxy)ethoxy]-4-pyridyl}-2-isopropoxypropanoic acid] |
| 0.0641 | 0.0049 | 0.339 | CCOC(Cc1ccnc(OCCOc2ccc(C(F)(F)F)cc2)c1)C(=O)O (stereo not drawn) [Example 19, 2-Ethoxy-3-(2-{2-[4-(trifluoromethyl)phenoxy]ethoxy}-4-pyridyl)propanoic acid] |
| 0.0763 | 0.0027 | 1.58 | CCOC(Cc1ccnc(OCCOc2ccc(C(C)(C)C)cc2)c1)C(=O)O (stereo not drawn) [Example 25, 3-(2-{2-[4-(tert-Butyl)phenoxy]ethoxy}-4-pyridyl)-2-ethoxypropanoic acid] |
